{"source": "patent US20150273025A1", "about": "“APYRASE TREATMENTS” (THE REGENTS OF THE UNIVERSITY OF MICHIGAN, priority 2012, published 2015)", "key": {"[1]": {"assay": "Killing efficiency of antibacterial agents with apyrase (summary of the examples)", "assay_type": "cell-based", "conditions": "in some instances", "experimental": "Embodiments of the technology relate to the surprising discovery that apyrase and antimicrobial agents act together synergistically. […] As such, the technology provides therapies in which antimicrobial agents are administered in lower doses (e.g., 0.01%, 0.1%, 1%, 5%, 10%, 20%, 50%, 75%, 90%, etc. of the standard recommended dosage) than in conventional technologies. Importantly, this reduces toxic side effects, if present, of antimicrobial agents in subjects and helps to prevent drug resistance of microbes. In addition, the technology provided herein comprising combined use of apyrase and antimicrobial agents provides the only treatment to kill some multiply-resistant strains of pathogens."}, "[2]": {"test_system": "BMP-2 signaling", "assay": "BMP-2 signaling of MSCs after burn injury, burn mouse model", "assay_type": "in vivo", "conditions": "apyrase at the burn site", "excerpt": "(§1) At the cellular level, research has shown that aberrant expression of BMPs in adipose-derived MSCs near the wound site stimulates osteogenic differentiation of multipotent cells. […] Alizarin red is used in to determine, quantitatively by colorimetry, the presence of calcific deposition by cells of an osteogenic lineage. As such, it is a marker of matrix mineralization, a crucial step towards the formation of calcified extracellular matrix associated with true bone. Thus, alizarin red staining indicates differentiation of cells to bone lineages.\n(§2) Consequently, it is contemplated that decreasing inflammation at the burn site with apyrase—thus decreasing ATP concentrations, which leads to decreased MSC BMP-2 signaling and decreased osteogenic differentiation—alleviates heterotopic ossification at wound sites."}, "[3]": {"test_system": "MSCs", "assay": "Osteogenic differentiation of MSCs after burn injury (alizarin red), burn mouse model", "assay_type": "in vivo", "excerpt": "as §1, §2"}, "[4]": {"test_system": "bacterial culture", "assay": "Growth of a bacterial culture (optical density at 600 nm) with apyrase", "assay_type": "cell-based", "conditions": "presence vs absence of apyrase over 15 to 20 hours"}, "[5]": {"test_system": "A. baumannii ATCC DMC1", "assay": "Mouse burn wound infection model, treatment 24 hours after inoculation", "conditions": "treated 24 hours after inoculation, sampled 48 hours after the burn", "procedure": "After a burn, A. baumannii ATCC DMC1 was inoculated on skin. After 24 hours, the wounds were treated with apyrase alone, colistin alone, or apyrase and colistin in combination. Skin samples were collected after another 24 hours and the CFU/g skin of A. baumannii ATCC DMC1 was determined."}, "[6]": {"test_system": "Burkholderia cepacia GIIIb AU0055", "assay": "Viable cell count (CFU) with colistin and apyrase", "conditions": "apyrase 2 U/ml; colistin at less than 10 μg/ml", "procedure": "Burkholderia cepacia GIIIb AU0055 was grown in the presence of combinations of 0 and 2 U/ml of apyrase and approximately 0 to 20 μg/ml of colistin. After incubation, the numbers of viable cells were determined by counting the colony forming units (CFU) on the plate (data provided as CFU/ml)."}, "[7]": {"test_system": "Burkholderia ambifaria AU5203", "assay": "Viable cell count (CFU) with colistin and apyrase", "conditions": "apyrase 2 U/ml; colistin at less than 20 μg/ml", "procedure": "Burkholderia ambifaria AU5203 was grown in the presence of combinations of 0 and 2 U/ml of apyrase and approximately 0 to 20 μg/ml of colistin. After incubation, the numbers of viable cells were determined by counting the colony forming units (CFU) on the plate (data provided as CFU/ml)."}, "[8]": {"test_system": "A. baumannii DMC1", "assay": "MIC from dose-kill curves, colistin alone or with apyrase", "assay_type": "cell-based", "conditions": "4 hours at 37° C., apyrase 2 U/ml in the combination", "experimental": "(§3) Data were collected from systematic tests to investigate bacterial killing with colistin and apyrase combinations against ESKAPE bacteria in vitro. […] Dose-kill curves for 22 strains (colistin sensitive or resistant ˜10^6 CFU/ml) were generated after exposure to colistin at different concentrations by itself or in combination with apyrase (2 U/ml) for 4 hours at 37° C. Data were obtained from three independent experiments. […] The MIC of colistin and apyrase combinations was generally 2- to 8-fold lower in comparison to the MIC for colistin alone (FIG. 31 and Table 2). For Gram-positive strains, the MICs results obtained with colistin alone and with the combination of colistin and apyrase were very similar."}, "[9]": {"test_system": "B. multivorans AU0801", "assay": "MIC from dose-kill curves, colistin alone or with apyrase", "assay_type": "cell-based", "conditions": "4 hours at 37° C., apyrase 2 U/ml in the combination", "experimental": "as §3"}, "[10]": {"test_system": "P. aeruginosa AU7443", "assay": "MIC from dose-kill curves, colistin alone or with apyrase", "assay_type": "cell-based", "conditions": "4 hours at 37° C., apyrase 2 U/ml in the combination", "experimental": "as §3"}, "[11]": {"test_system": "A. baumannii ATCC 19606", "assay": "MIC from dose-kill curves, colistin alone or with apyrase", "assay_type": "cell-based", "conditions": "4 hours at 37° C., apyrase 2 U/ml in the combination", "experimental": "as §3"}, "[12]": {"test_system": "S. aureus ATCC 25923", "assay": "MIC from dose-kill curves, colistin alone or with apyrase", "assay_type": "cell-based", "conditions": "4 hours at 37° C., apyrase 2 U/ml in the combination", "experimental": "as §3"}, "[13]": {"test_system": "P. aeruginosa PAO300", "assay": "MIC from dose-kill curves, colistin alone or with apyrase", "assay_type": "cell-based", "conditions": "4 hours at 37° C., apyrase 2 U/ml in the combination", "experimental": "as §3"}, "[14]": {"test_system": "E. coli K-12", "assay": "MIC from dose-kill curves, colistin alone or with apyrase", "assay_type": "cell-based", "conditions": "4 hours at 37° C., apyrase 2 U/ml in the combination", "experimental": "as §3"}, "[15]": {"test_system": "A. baumannii AC121", "assay": "MIC from dose-kill curves, colistin alone or with apyrase", "assay_type": "cell-based", "conditions": "4 hours at 37° C., apyrase 2 U/ml in the combination", "experimental": "as §3"}, "[16]": {"test_system": "A. baumannii AC285", "assay": "MIC from dose-kill curves, colistin alone or with apyrase", "assay_type": "cell-based", "conditions": "4 hours at 37° C., apyrase 2 U/ml in the combination", "experimental": "as §3"}, "[17]": {"test_system": "P. aeruginosa AU1292", "assay": "MIC from dose-kill curves, colistin alone or with apyrase", "assay_type": "cell-based", "conditions": "4 hours at 37° C., apyrase 2 U/ml in the combination", "experimental": "as §3"}, "[18]": {"test_system": "P. aeruginosa ATCC 27853", "assay": "MIC from dose-kill curves, colistin alone or with apyrase", "assay_type": "cell-based", "conditions": "4 hours at 37° C., apyrase 2 U/ml in the combination", "experimental": "as §3"}, "[19]": {"test_system": "A. baumannii VBA9", "assay": "MIC from dose-kill curves, colistin alone or with apyrase", "assay_type": "cell-based", "conditions": "4 hours at 37° C., apyrase 2 U/ml in the combination", "experimental": "as §3"}, "[20]": {"test_system": "K. pneumonia AD", "assay": "MIC from dose-kill curves, colistin alone or with apyrase", "assay_type": "cell-based", "conditions": "4 hours at 37° C., apyrase 2 U/ml in the combination", "experimental": "as §3"}, "[21]": {"test_system": "Burkholderia cepacia GIIIb AU0062", "assay": "Viable cell count (CFU) with colistin and apyrase", "conditions": "apyrase 2 U/ml; colistin at less than 20 μg/ml", "procedure": "Burkholderia cepacia GIIIb AU0062 was grown in the presence of combinations of 0 and 2 U/ml of apyrase and approximately 0 to 20 μg/ml of colistin. After incubation, the numbers of viable cells were determined by counting the colony forming units (CFU) on the plate (data provided as CFU/ml)."}, "[22]": {"test_system": "P. aeruginosa strain AU7443, mucoid", "assay": "Viable cell count (CFU) with colistin and apyrase", "conditions": "apyrase 2 U/ml; colistin at less than 20 μg/ml", "procedure": "After incubation, the numbers of viable cells were determined by counting the colony forming units (CFU) on the plate (data provided as CFU/ml)."}, "[23]": {"test_system": "Burkholderia cepacia AU1114", "assay": "Viable cell count (CFU) with colistin and apyrase", "conditions": "apyrase 2 U/ml; colistin at less than 20 μg/ml", "procedure": "Burkholderia cepacia AU1114 was grown in the presence of combinations of 0 and 2 U/ml of apyrase and approximately 0 to 20 μg/ml of colistin. After incubation, the numbers of viable cells were determined by counting the colony forming units (CFU) on the plate (data provided as CFU/ml)."}, "[24]": {"test_system": "Burkholderia vietnamiensis AU10214", "assay": "Viable cell count (CFU) with colistin and apyrase", "conditions": "apyrase 2 U/ml; colistin at less than 20 μg/ml", "procedure": "Burkholderia vietnamiensis AU10214 was grown in the presence of combinations of 0 and 2 U/ml of apyrase and approximately 0 to 20 μg/ml of colistin. After incubation, the numbers of viable cells were determined by counting the colony forming units (CFU) on the plate (data provided as CFU/ml)."}, "[25]": {"test_system": "A. baumannii strain DMC1", "assay": "Viable cell count (CFU) with colistin and apyrase", "conditions": "apyrase 1 and 2 U/ml; colistin 4 to 32 μg/ml; colistin alone at the same concentrations", "procedure": "Approximately 10^6 CFU/ml of A. baumannii strain DMC1 was grown on solid medium culture plates in the presence of combinations of 0, 1, and 2 U/ml of apyrase and 0, 4, 8, 16, and 32 μg/ml of colistin. After incubation, the numbers of viable cells were determined by counting the colony forming units (CFU) on the plate (data provided as CFU/ml)."}, "[26]": {"test_system": "Burkholderia cepacia GIIIa AU0019", "assay": "Viable cell count (CFU) with colistin and apyrase", "assay_type": "cell-based", "conditions": "apyrase 2 U/ml; colistin at less than 10 μg/ml"}, "[27]": {"test_system": "A. baumannii strain AC121", "assay": "Viable cell count (CFU) with colistin and apyrase", "conditions": "apyrase 2 U/ml; colistin at less than 20 μg/ml; colistin-resistant strain", "procedure": "Approximately 10^5 to 10^6 CFU/ml of the colistin-resistant A. baumannii strain AC121 was grown in the presence of combinations of 0 and 2 U/ml of apyrase and approximately 0 to 20 μg/ml of colistin. After incubation, the numbers of viable cells were determined by counting the colony forming units (CFU) on the plate (data provided as CFU/ml)."}, "[28]": {"test_system": "Burkholderia dolosa AU0589", "assay": "Viable cell count (CFU) with colistin and apyrase", "conditions": "apyrase 2 U/ml; colistin at less than 20 μg/ml", "procedure": "Burkholderia dolosa AU0589 was grown in the presence of combinations of 0 and 2 U/ml of apyrase and approximately 0 to 20 μg/ml of colistin. After incubation, the numbers of viable cells were determined by counting the colony forming units (CFU) on the plate (data provided as CFU/ml)."}, "[29]": {"test_system": "A. baumannii DMC1", "assay": "Mouse wound model, viable bacteria at burn sites 24 hours after burn", "conditions": "C57BL/6 mice, colistin 4 μg/ml", "procedure": "In addition, experiments were performed to test the synergistic killing effects of colistin and apyrase in vivo. An established mouse wound model was used for this test.\nFemale pathogen-free C57BL/6 mice (Harlan, Indianapolis, Ind.), 12 weeks old, weighing ˜20-23 grams were used in all experiments. The skin over the lumbrosacral and back region was clipped using a 35-W model 5-55 E electrical clipper (Oyster-Golden A-S, Head no. 80, blade size 40) by using the method described by Ipaktchi et al. with slight modification. Two hundred microliters of a 0.9% saline suspension of A. baumannii DMC1 (1×10^6 cells/ml), which is a highly colistin resistant clinical strain, was used for wound infection experiments. Viable bacterial numbers were determined 24 hours after burn. The Student t-test was used for statistical analysis.\nExperiments were carried out in four groups: (1) a control group (n=6), which contained neither apyrase nor colistin; (2) apyrase group (n=9), which contained apyrase (1 U/ml); (3) colistin group (n=9), which contained colistin (4 μg/ml); and (4) apyrase and colistin group (n=9), which was treated with the combination of apyrase (1 U/ml) and colistin (4 μg/ml). The treatment was applied immediately after inoculation. After 24 hours, the mice were given lethal IP injections of pentobarbital (150 mg/kg) and skin samples were collected using a scalpel and scissors."}, "[30]": {"test_system": "P. aeruginosa strain AU8104", "assay": "Viable cell count (CFU) with colistin and apyrase", "conditions": "apyrase 2 U/ml; colistin at less than 10 μg/ml", "procedure": "P. aeruginosa strain AU8104 was grown in the presence of combinations of 0 and 2 U/ml of apyrase and approximately 0 to 20 μg/ml of colistin. After incubation, the numbers of viable cells were determined by counting the colony forming units (CFU) on the plate (data provided as CFU/ml)."}, "[31]": {"test_system": "P. aeruginosa strain AU1292", "assay": "Viable cell count (CFU) with colistin and apyrase", "conditions": "apyrase 2 U/ml; colistin at less than 20 μg/ml", "procedure": "P. aeruginosa strain AU1292 was grown in the presence of combinations of 0 and 2 U/ml of apyrase and approximately 0 to 20 μg/ml of colistin. After incubation, the numbers of viable cells were determined by counting the colony forming units (CFU) on the plate (data provided as CFU/ml)."}, "[32]": {"test_system": "A. baumannii strain ATCC 19606", "assay": "Viable cell count (CFU) with colistin and apyrase", "conditions": "apyrase 1 and 2 U/ml; colistin 0.25 to 2 μg/ml; colistin alone at the same concentrations", "procedure": "Approximately 10^6 CFU/ml of A. baumannii strain ATCC 19606 was grown on solid medium culture plates in the presence of combinations of 0, 1, and 2 U/ml of apyrase and 0, 0.25, 0.5, 1, and 2 μg/ml of colistin. After incubation, the numbers of viable cells were determined by counting the colony forming units (CFU) on the plate (data provided as CFU/ml). […] In these Examples, the colistin is colistin sulfate salt, catalog number C4461 from Sigma-Aldrich (St. Louis, Mo.) and the apyrase is catalog number M0393L from New England BioLabs Inc. (Ipswich, Mass.)."}, "[33]": {"test_system": "P. aeruginosa AU0584", "assay": "Viable cell count (CFU) with colistin and apyrase", "conditions": "apyrase 2 U/ml; colistin at less than 10 μg/ml", "procedure": "P. aeruginosa AU0584 was grown in the presence of combinations of 0 and 2 U/ml of apyrase and approximately 0 to 20 μg/ml of colistin. After incubation, the numbers of viable cells were determined by counting the colony forming units (CFU) on the plate (data provided as CFU/ml)."}, "[34]": {"test_system": "Burkholderia multivorans AU0801", "assay": "Viable cell count (CFU) with colistin and apyrase", "conditions": "apyrase 2 U/ml; colistin at less than 10 μg/ml", "procedure": "Burkholderia multivorans AU0801 was grown in the presence of combinations of 0 and 2 U/ml of apyrase and approximately 0 to 20 μg/ml of colistin. After incubation, the numbers of viable cells were determined by counting the colony forming units (CFU) on the plate (data provided as CFU/ml)."}}, "note": "Where a SMILES comes first, the peptide text is derived from it. Bridges are numbered along the chain shown (N, C = ends). [ ]: non-standard residue; d: D form. The star is where a group is joined. Heptanoyl(5-Me) = CCC(C)CCCC(=O)*; Dab = NCC[C@H](N)C(=O)O", "data": [{"compound": "apyrase", "values": [{"measurement": "increase of the killing efficiency of antibacterial agents", "setting": "[1]", "value": 1000, "unit": "times"}, {"measurement": "level of BMP-2 signaling of the MSCs", "setting": "[2]", "value": "decreased"}, {"measurement": "osteogenic differentiation of MSCs (alizarin red)", "setting": "[3]; after burn injury and apyrase treatment", "value": "significant decrease"}, {"measurement": "osteogenic capacity of the MSCs", "setting": "[3]; apyrase at the burn site", "value": "decreased"}, {"measurement": "growth of a bacterial culture (optical density at 600 nm)", "setting": "[4]", "value": "does not affect bacterial growth"}, {"measurement": "A. baumannii detected on skin", "setting": "[5]", "value": "approximately 10^8 CFU/g of skin"}]}, {"compound": "CCC(C)CCCC(=O)N[C@@H](CCN)C(=O)N[C@H](C(=O)N[C@@H](CCN)C(=O)N[C@H]1CCNC(=O)[C@H]([C@@H](C)O)NC(=O)[C@H](CCN)NC(=O)[C@H](CCN)NC(=O)[C@H](CC(C)C)NC(=O)[C@@H](CC(C)C)NC(=O)[C@H](CCN)NC1=O)[C@@H](C)O", "note": "(stereo partly drawn) [Colistin, colistin] ({Heptanoyl(5-Me)}-[Dab]T[Dab][Dab][Dab][dL]L[Dab][Dab]T; lactam 4-C)", "values": [{"measurement": "viable cells detected", "setting": "[6]", "value": "10^4 to 10^5 CFU/ml"}, {"measurement": "viable cells detected", "setting": "[7]", "value": "10^5 to 10^6 CFU/ml"}, {"measurement": "MIC", "setting": "[8]", "value": "> 32", "unit": "µM"}, {"measurement": "MIC", "setting": "[9]", "value": "> 16", "unit": "µM"}, {"measurement": "MIC", "setting": "[10]", "value": "> 16", "unit": "µM"}, {"measurement": "MIC", "setting": "[11]", "value": 4, "unit": "µM"}, {"measurement": "MIC", "setting": "[12]", "value": "> 32", "unit": "µM"}, {"measurement": "MIC", "setting": "[13]", "value": 2, "unit": "µM"}, {"measurement": "MIC", "setting": "[14]", "value": 2, "unit": "µM"}, {"measurement": "MIC", "setting": "[15]", "value": "> 32", "unit": "µM"}, {"measurement": "MIC", "setting": "[16]", "value": "> 32", "unit": "µM"}, {"measurement": "MIC", "setting": "[17]", "value": "> 16", "unit": "µM"}, {"measurement": "MIC", "setting": "[18]", "value": 1, "unit": "µM"}, {"measurement": "MIC", "setting": "[19]", "value": "> 32", "unit": "µM"}, {"measurement": "MIC", "setting": "[20]", "value": 16, "unit": "µM"}, {"measurement": "viable cells detected", "setting": "[21]", "value": "10^4 to 10^5 CFU/ml"}, {"measurement": "viable cells detected", "setting": "[22]", "value": "10^4 to 10^5 CFU/ml"}, {"measurement": "viable cells detected", "setting": "[23]", "value": "10^5 to 10^6 CFU/ml"}, {"measurement": "viable cells detected", "setting": "[24]", "value": "10^5 to 10^6 CFU/ml"}, {"measurement": "viable cell count", "setting": "[25]", "value": "approximately 10^7 CFU/ml"}, {"measurement": "viable cells detected", "setting": "[26]", "value": "10^5 to 10^6 CFU/ml"}, {"measurement": "viable cells detected", "setting": "[27]", "value": "10^7 to 10^8 CFU/ml"}, {"measurement": "viable cells detected", "setting": "[28]", "value": "10^6 to 10^7 CFU/ml"}, {"measurement": "viable bacteria number recovered from burn sites, compared with the control group", "setting": "[29]", "value": "no significant difference"}, {"measurement": "viable cells detected", "setting": "[30]", "value": "10^5 to 10^6 CFU/ml"}, {"measurement": "viable cells detected", "setting": "[31]", "value": "10^4 to 10^5 CFU/ml"}, {"measurement": "viable cell count", "setting": "[32]", "value": "approximately 10^5 CFU/ml"}, {"measurement": "viable cells detected", "setting": "[33]", "value": "10^3 to 10^4 CFU/ml"}, {"measurement": "A. baumannii detected on skin", "setting": "[5]", "value": "approximately 10^8 CFU/g of skin"}, {"measurement": "viable cells detected", "setting": "[34]", "value": "10^5 to 10^6 CFU/ml"}]}]}
